Data published in ChEMBL document CHEMBL3727348, “3-(aryl or heteroaryl) methyleneindolin-2-one derivatives as inhibitors of cancer stem cell pathway kinases for the treatment of cancer” (2014).

Columns and labels:
[1] = biological target: Serine/threonine-protein kinase RIO2 (Homo sapiens) (UniProt Q9BVS4); assay: Inhibition of N-terminal GST-fused full length human recombinant RIOK2 expressed in baculovirus Sf21 cells assessed as reduction in kinase auto-phosphorylation at 10 uM in presence of ATP incubated for 1 hr by ELISA method
Sequence of Serine/threonine-protein kinase RIO2 (Homo sapiens) (Q9BVS4 whole entry, looked up, the tested form may be a part): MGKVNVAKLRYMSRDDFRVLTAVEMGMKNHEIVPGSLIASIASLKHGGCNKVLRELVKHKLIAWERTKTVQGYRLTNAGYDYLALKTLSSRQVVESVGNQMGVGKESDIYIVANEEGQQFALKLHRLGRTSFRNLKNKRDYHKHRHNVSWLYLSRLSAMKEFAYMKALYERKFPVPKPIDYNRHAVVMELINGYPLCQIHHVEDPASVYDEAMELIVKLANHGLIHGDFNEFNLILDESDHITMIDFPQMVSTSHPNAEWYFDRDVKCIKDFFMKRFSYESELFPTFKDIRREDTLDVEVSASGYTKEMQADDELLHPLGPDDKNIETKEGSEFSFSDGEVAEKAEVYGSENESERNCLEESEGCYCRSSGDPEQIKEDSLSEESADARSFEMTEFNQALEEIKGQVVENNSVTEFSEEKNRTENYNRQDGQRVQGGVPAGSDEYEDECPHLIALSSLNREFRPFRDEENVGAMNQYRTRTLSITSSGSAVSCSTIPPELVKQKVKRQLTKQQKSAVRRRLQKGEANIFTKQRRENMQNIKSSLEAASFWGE

FaDu [2] = assay: Cytotoxic activity against human FADU cancer stem cells incubated for 72 hrs by Cell-titer-Glo luminescence assay; format: functional, cell-based
ACHN [3] = assay: Cytotoxic activity against human ACHN bulk cells incubated for 72 hrs by Cell-titer-Glo luminescence assay; format: functional, cell-based
FaDu [4] = assay: Cytotoxic activity against human FADU bulk cells incubated for 72 hrs by Cell-titer-Glo luminescence assay; format: functional, cell-based
ACHN [5] = assay: Cytotoxic activity against human ACHN cancer stem cells incubated for 72 hrs by Cell-titer-Glo luminescence assay; format: functional, cell-based
A549 [6] = assay: Cytotoxic activity against human A549 cancer stem cells incubated for 72 hrs by Cell-titer-Glo luminescence assay; format: functional, cell-based; details: A549, 72 h
A549 [7] = assay: Cytotoxic activity against human A549 bulk cells incubated for 72 hrs by Cell-titer-Glo luminescence assay; format: functional, cell-based; details: A549, 72 h

| SMILES | inhibition [1] [%] | IC50 (FaDu [2]) [µM] | IC50 (ACHN [3]) [µM] | IC50 (FaDu [4]) [µM] | IC50 (ACHN [5]) [µM] | IC50 (A549 [6]) [µM] | IC50 (A549 [7]) [µM] |
| --- | --- | --- | --- | --- | --- | --- | --- |
| CCN(CC)CCNC(=O)c1c(C)[nH]c(/C=C2\C(=O)Nc3ccc(-c4ccc(-c5ccccc5)s4)cc32)c1C | 14 | 1.2 | 7.6 | 4.74 | – | – | – |
| CCN(CC)CCNC(=O)c1c(C)[nH]c(/C=C2\C(=O)Nc3ccc(-c4ccc(-c5ccccc5)nc4)cc32)c1C | – | 3.96 | 7.41 | 4.92 | 0.63 | 6.45 | 2.3 |
| CCN(CC)CCNC(=O)c1c(C)[nH]c(/C=C2\C(=O)Nc3ccc(-c4ccccn4)cc32)c1C | – | 0.18 | 2.26 | 2.56 | 1.06 | 5.45 | 7.23 |
| CCN(CC)CCNC(=O)c1c(C)[nH]c(/C=C2\C(=O)Nc3ccc(-c4csc(-n5cccn5)n4)cc32)c1C | – | 5.11 | 7.88 | 4.68 | 0.62 | 6.64 | 3.71 |
| CCN(CC)CCNC(=O)c1c(C)[nH]c(/C=C2\C(=O)Nc3ccc(-c4cnsc4)cc32)c1C | – | 3.42 | 4.58 | 3.17 | 0.64 | 6.66 | 3.79 |
| Cc1[nH]c(/C=C2\C(=O)Nc3ccc(-c4ccc(-c5ccccc5)s4)cc32)c(C)c1C(=O)N1CCN(C)CC1 | 65 | 1.16 | – | 25.4 | – | – | – |
| CCN(CC)CCNC(=O)c1c(C)[nH]c(/C=C2\C(=O)Nc3ccc(-c4ccncc4)cc32)c1C | – | 16.2 | 11.6 | 6.81 | 2.14 | 9.85 | 7.07 |
| CCN(CC)CCNC(=O)c1c(C)[nH]c(/C=C2\C(=O)Nc3ccc(-c4ncccn4)cc32)c1C | – | 0.09 | 3.5 | 6.02 | 1.15 | 18 | 15.4 |
| CCN(CC)CCNC(=O)c1c(C)[nH]c(/C=C2\C(=O)Nc3ccc(-c4cnc5ccccn45)cc32)c1C | – | 17.6 | 4.65 | 4.63 | 3.44 | 17.2 | 5.86 |
| CCN(CC)CCNC(=O)c1c(C)[nH]c(/C=C2\C(=O)Nc3cc(-c4csc(-n5cccn5)n4)ccc32)c1C | – | 0.78 | 2.6 | 5.3 | 0.17 | 2.93 | 5.8 |
| Cc1cc(C)c(/C=C2\C(=O)Nc3ccc(-c4ccc(O)cc4C)cc32)[nH]1 | – | 14.4 | 14.9 | 14.7 | 21.1 | 36.8 | 12.5 |
| Cc1[nH]c(/C=C2\C(=O)Nc3ccc(-c4cnn(-c5ccccc5)c4)cc32)c(C)c1C(=O)NCc1nc2ccccc2[nH]1 | 79 | – | – | – | – | – | – |
| Cc1cc(C)c(/C=C2\C(=O)Nc3ccc(-c4csc(-n5ccnc5)n4)cc32)[nH]1 | – | 37.4 | 8.84 | 14.5 | 2.72 | 35 | 9.31 |
| CCN(CC)CCNC(=O)CCc1c(C)[nH]c(/C=C2\C(=O)Nc3ccc(-c4csc(-c5ccccc5)n4)cc32)c1C | – | 3.53 | 2.48 | 3.85 | 4.23 | 8.74 | 1.11 |
| CCN(CC)CCN(C)C(=O)c1c(C)[nH]c(/C=C2\C(=O)Nc3ccc(-c4csc(-c5ccccc5)n4)cc32)c1C | – | 3.6 | 11.3 | 18.3 | 0.69 | 10.5 | 9.94 |
| CCN(CC)CCNC(=O)c1c(C)[nH]c(/C=C2\C(=O)Nc3ccc(-c4ccc(C#N)c(F)c4)cc32)c1C | – | 3.48 | 13.3 | 14 | 1.71 | 12 | 14.5 |

| SMILES | inhibition [1] [%] | IC50 (FaDu [2]) [µM] | IC50 (ACHN [3]) [µM] | IC50 (FaDu [4]) [µM] | IC50 (ACHN [5]) [µM] | IC50 (A549 [6]) [µM] | IC50 (A549 [7]) [µM] |
| --- | --- | --- | --- | --- | --- | --- | --- |
| O=C1Nc2ccc(-c3csc(C4CCNCC4)n3)cc2/C1=C/c1cc2c([nH]1)CCCC2 | – | 12 | 18.8 | 21.1 | 2.68 | 22.1 | 9.39 |
| CCN(CC)CCNC(=O)c1c(C)[nH]c(/C=C2\C(=O)Nc3ccc(-c4ccc(OC)cn4)cc32)c1C | – | 0.16 | 6.44 | 7.01 | 1.08 | 8.89 | 10.8 |
| Cc1[nH]c(/C=C2\C(=O)Nc3ccc(-c4nnc(-c5ccccc5)s4)cc32)c(C)c1C(=O)N1CCN(C)CC1 | 19 | 0.23 | – | 14.1 | – | – | 48.9 |
| CCN(CC)CCNC(=O)c1c(C)[nH]c(/C=C2\C(=O)Nc3ccc(-c4ccc(C(=O)O)s4)cc32)c1C | – | 4.3 | 2.04 | 1.21 | 2.28 | 8.82 | 2.2 |
| COC(=O)c1c(C)[nH]c(/C=C2\C(=O)Nc3ccc(-c4csc(-c5ccncc5)n4)cc32)c1C | – | 6.74 | 12.6 | 18.6 | 6.16 | 4.8 | 9.61 |
| O=C1Nc2ccc(-c3csc(-c4ccccc4)n3)cc2/C1=C/c1ncc[nH]1 | – | 2.5 | 1.44 | 7.57 | 2.91 | 2.31 | 17.2 |
| CCN(CC)CCNC(=O)c1c(C)[nH]c(/C=C2\C(=O)Nc3ccc(-c4ccc(C=O)cc4)cc32)c1C | – | 7.51 | 2.81 | 12.1 | 4.34 | 5.84 | 10.6 |
| CCN(CC)CCNC(=O)c1c(C)[nH]c(/C=C2\C(=O)Nc3ccc(-c4ccc(C)cn4)cc32)c1C | – | 0.22 | 2.92 | 3.05 | 1.16 | 3.38 | 6.51 |
| CCN(CC)CCNC(=O)c1c(C)[nH]c(/C=C2\C(=O)Nc3ccc(-c4ccc5c(c4)CC(=O)N5)cc32)c1C | – | 15.5 | 18.9 | 25.4 | 20.8 | 29.2 | 19.7 |
| Cc1ccc(-c2nc(-c3ccc4c(c3)/C(=C/c3[nH]c(C)c(C(=O)NCCN5CCCC5)c3C)C(=O)N4)cs2)cc1 | – | 0.31 | 2.32 | 4.22 | 0.14 | 12.2 | 5.99 |
| CCN(CC)CCNC(=O)c1cc(C)c(/C=C2\C(=O)Nc3ccc(-c4csc(-c5ccccc5)n4)cc32)[nH]1 | – | 3.13 | 14.9 | 11.4 | 4.04 | 26.7 | 4 |
| Cc1[nH]c(/C=C2\C(=O)Nc3ccc(-c4cnn(-c5ccccc5)c4)cc32)c(C)c1C(=O)NC1CNCC(c2ccccc2)C1 (centres undefined) | 69 | – | – | – | – | – | – |
| Cc1cc(C)c(/C=C2\C(=O)Nc3ccc(-c4n[nH]c5ccccc45)cc32)[nH]1 | – | 5.33 | 8.73 | 4.43 | 3.1 | 7.28 | 6.45 |
| CCN(CC)CCNC(=O)c1c(C)[nH]c(/C=C2\C(=O)Nc3cc(-c4cccc5ncccc45)ccc32)c1C | – | 2.64 | 2.66 | 4.83 | 0.42 | 8.61 | 2.88 |
| CCN(CC)CCNC(=O)c1c(C)[nH]c(/C=C2\C(=O)Nc3cc(-c4ccc(O)cc4C)ccc32)c1C | – | 1.54 | 2.53 | 2.14 | 2.17 | 7.55 | 2.76 |
